For one test, the target named is T1, Human ACC1 (Homo sapiens, UniProt Q13085).
T1 construct: made in house; host or cells: SF-9 insect cells (baculovirus, pFAST-BacHTc)
Description: in vitro enzymatic ACC activity assay (malachite green, absorbance at 620 nm), ACC1. It counts as biochemical. As to conditions: recombinant His-tagged human ACC1, 8 μg/mL; 60 min preincubation, 20 min reaction at 30° C. The procedure:
(§1) Provided in Example A is an in vitro enzymatic ACC activity assay for activity against ACC. The binding affinity of the test compound to ACC1 or ACC2 is determined by the changes in absorbance (at 620 nm); […]. It should be noted that a variety of other expression systems and hosts are also suitable for the expression of ACC, as would be readily appreciated by one of skill in the art.
A. Purification of Human ACC1
Human ACC1 cDNA was amplified from human liver cDNA by polymerase chain reaction using primers; 5′[…]3′ (SEQ ID NO. 1) and 5′[…]3′ (SEQ ID NO: 2). The amplified DNA fragment was digested by restriction enzyme SalI and NotI, and cloned into pFAST-BacHTc (Invitrogen). This plasmid DNA was used for preparation of recombinant vaculovirus with BAC-TO-BAC Baculovirus Expression System (Invitrogen).
SF-9 cells were infected with the vaculovirus and cultured at 27° C. for 3 days. Harvested cells were homogenized in buffer A (25 mM HEPES (pH7.5), 130 mM NaCl, 1 mM EDTA, 25 mM sodium glycerophosphate, 1 mM sodium orthovanadate, 10% glycerol, complete protease inhibitor), and subjected to ultracentrifuge at 185700×g for 50 min at 4° C. ACC1 protein with 6×His-tag at the N-terminal was purified from the supernatant using Ni-NTA Super Flow Gel (QIAGEN). Eluted protein was dialysed against buffer B (50 mM HEPES (pH 7.5), 300 mM NaCl, 10 mM MgCl2, 10 mM tripotassium citrate, 2 mM dithiothreitol) and concentrated using Vivaspin20 ultrafiltration tube (Sartorius).
(§2) C. Measurement of ACC Activity
(§3) Malachite green solution was prepared by mixing 100 mL of solution A (0.12% malachite green in 5N H2SO4), 25 mL of solution B (7.5% ammonium molybdate) and 2 mL of solution C (11% TWEEN-20).
(§4) ACC1 was diluted to 8 μg/mL in reaction buffer (50 mM HEPES pH7.5, 10 mM MgCl2, 10 mM tripotassium citrate, 2 mM DTT, 0.75 mg/mL fatty acid free BSA) and 10 μL diluted enzyme solution was pored into each well of 384-well clear bottom plate. Test compound was diluted in the reaction buffer and 5 μL of the compound solution was added into each well, and the mixture was incubated at 30° C. for 60 minutes. Reaction was initiated by addition of 5 μL substrate solution (50 mM KHCO3, 200 μM ATP, 200 μM acetyl-CoA). After incubation at 30° C. for 20 minutes, reaction was terminated by addition of 5 μL malachite green solution and absorbance at 620 nm was measured.
(§5) Percent activity at each concentration of compound was calculated from the following equation:
(§6) [formula] where Abs is absorbance, Avg is average.
(§7) Data were subjected to nonlinear regression analysis using GraphPad Prism Software (GraphPad Software Inc.) to obtain IC50 values.

For the next test, the target named is T2, Human ACC2 (Homo sapiens, UniProt O00763).
T2 construct: made in house; host or cells: SF-9 insect cells (baculovirus, pFAST-BacHTa)
Description: in vitro enzymatic ACC activity assay (malachite green, absorbance at 620 nm), ACC2. Conditions: recombinant His-tagged human ACC2, 6.4 μg/mL; same method as ACC1. It counts as biochemical. The procedure: as §1
B. Purification of Human ACC2
Human ACC2 cDNA except coding region for mitochondria localization sequence was amplified from human skeletal muscle cDNA by polymerase chain reaction using primers; 5′[…]3′ (SEQ ID NO: 3) and 5′[…]3′ (SEQ ID NO: 4). The amplified DNA fragment was digested by SalI and AflIII, and cloned into pFAST-BacHTa (Invitrogen). Preparation of recombinant vaculovirus, infection of the virus to SF-9 cells and purification of recombinant ACC2 protein with 6×His-tag at the N-terminal were performed in the same method as described above.
as §2, §3, §4
ACC2 was diluted to 6.4 μg/mL in reaction buffer, and the activity was measured by the same method as described for ACC1.
as §5, §6, §7

T2 sequence (O00763 117-2458 limits assumed): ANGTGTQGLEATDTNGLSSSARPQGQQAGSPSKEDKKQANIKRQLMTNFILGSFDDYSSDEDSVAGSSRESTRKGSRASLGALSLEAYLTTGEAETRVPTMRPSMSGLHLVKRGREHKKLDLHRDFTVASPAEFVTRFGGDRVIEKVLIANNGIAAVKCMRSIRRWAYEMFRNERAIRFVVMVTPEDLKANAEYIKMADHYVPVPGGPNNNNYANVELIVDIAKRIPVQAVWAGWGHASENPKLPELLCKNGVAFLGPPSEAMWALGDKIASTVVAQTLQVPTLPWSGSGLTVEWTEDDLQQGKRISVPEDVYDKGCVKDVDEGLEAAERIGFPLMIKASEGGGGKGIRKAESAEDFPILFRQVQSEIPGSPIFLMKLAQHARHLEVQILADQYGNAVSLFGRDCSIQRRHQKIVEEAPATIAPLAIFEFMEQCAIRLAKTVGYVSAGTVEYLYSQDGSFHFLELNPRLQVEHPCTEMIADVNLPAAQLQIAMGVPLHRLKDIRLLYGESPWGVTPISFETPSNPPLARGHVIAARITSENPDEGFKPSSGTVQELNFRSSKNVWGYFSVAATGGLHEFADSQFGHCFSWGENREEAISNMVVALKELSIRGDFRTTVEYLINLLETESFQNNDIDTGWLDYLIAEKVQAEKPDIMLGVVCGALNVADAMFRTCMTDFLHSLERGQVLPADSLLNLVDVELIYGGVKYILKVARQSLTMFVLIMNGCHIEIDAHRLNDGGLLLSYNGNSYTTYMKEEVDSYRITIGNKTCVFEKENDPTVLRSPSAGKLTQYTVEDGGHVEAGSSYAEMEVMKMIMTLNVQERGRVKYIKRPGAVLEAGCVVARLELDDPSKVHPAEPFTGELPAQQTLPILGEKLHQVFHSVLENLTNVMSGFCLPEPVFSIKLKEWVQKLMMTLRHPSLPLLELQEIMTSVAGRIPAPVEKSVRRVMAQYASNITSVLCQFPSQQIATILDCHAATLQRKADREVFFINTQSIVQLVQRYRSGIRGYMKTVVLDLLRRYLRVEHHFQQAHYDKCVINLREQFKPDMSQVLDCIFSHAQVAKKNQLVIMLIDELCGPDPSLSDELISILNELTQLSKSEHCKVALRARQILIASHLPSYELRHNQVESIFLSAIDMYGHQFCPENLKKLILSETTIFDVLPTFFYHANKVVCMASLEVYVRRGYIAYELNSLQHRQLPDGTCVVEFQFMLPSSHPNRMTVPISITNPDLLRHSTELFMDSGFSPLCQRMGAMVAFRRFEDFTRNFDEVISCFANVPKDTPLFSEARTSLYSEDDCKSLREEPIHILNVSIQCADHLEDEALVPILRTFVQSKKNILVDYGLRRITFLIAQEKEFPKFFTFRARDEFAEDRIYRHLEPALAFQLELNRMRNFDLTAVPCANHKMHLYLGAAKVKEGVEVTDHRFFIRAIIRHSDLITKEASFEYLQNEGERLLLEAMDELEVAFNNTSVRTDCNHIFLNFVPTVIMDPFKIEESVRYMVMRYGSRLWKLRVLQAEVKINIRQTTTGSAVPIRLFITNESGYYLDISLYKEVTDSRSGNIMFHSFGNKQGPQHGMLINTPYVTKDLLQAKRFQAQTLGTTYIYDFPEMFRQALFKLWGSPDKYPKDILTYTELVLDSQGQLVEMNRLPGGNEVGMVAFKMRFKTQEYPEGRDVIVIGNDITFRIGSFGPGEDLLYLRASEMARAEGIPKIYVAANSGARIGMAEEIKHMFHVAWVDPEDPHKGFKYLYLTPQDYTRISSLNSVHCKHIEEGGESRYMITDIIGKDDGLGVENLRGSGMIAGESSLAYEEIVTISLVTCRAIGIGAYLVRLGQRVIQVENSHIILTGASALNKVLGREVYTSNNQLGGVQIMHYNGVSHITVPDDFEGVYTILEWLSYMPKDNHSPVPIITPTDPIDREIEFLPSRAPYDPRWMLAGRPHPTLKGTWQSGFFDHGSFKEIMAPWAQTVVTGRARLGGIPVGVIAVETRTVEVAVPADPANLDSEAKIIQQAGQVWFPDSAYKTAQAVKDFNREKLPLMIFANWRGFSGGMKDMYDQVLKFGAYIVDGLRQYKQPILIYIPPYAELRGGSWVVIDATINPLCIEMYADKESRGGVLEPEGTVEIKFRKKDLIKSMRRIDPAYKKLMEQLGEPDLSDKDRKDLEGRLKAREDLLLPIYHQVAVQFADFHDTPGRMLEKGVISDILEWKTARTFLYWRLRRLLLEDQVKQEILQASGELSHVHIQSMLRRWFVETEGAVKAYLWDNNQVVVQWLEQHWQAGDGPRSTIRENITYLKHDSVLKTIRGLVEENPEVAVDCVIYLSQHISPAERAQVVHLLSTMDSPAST

Regarding `CCNC(=O)Nc1sc2ccccc2c1C(=O)N1CCC2(CC1)N=C(COCC(C)C)NC2=O` [Compound 30, 1-ethyl-3-(3-(2-(isobutoxymethyl)-4-oxo-1,3,8-triazaspiro[4.5]dec-1-enecarbonyl)benzo[b]thiophen-2-yl)urea], the IC50 at Human ACC1 is 1 to 10 µM; on Human ACC2, less than 1 µM.

Consider `CCNC(=O)Nc1sc2ccccc2c1C(=O)N1CCC2(CC1)N=C(CS(=O)(=O)C(C)C)NC2=O` [Compound 24, 1-ethyl-3-(3-(2-(isopropylsulfonylmethyl)-4-oxo-1,3,8-triazaspiro[4.5]dec-1-enecarbonyl)benzo[b]thiophen-2-yl)urea], for which the results for the IC50 on Human ACC1 and at Human ACC2 were 1 to 10 µM and less than 1 µM, respectively.

As for `CCNC(=O)Nc1sc2ccccc2c1C(=O)N1CCC(N)(C(N)=O)CC1` [Compound 7, 4-amino-1-(2-(3-ethylureido)benzo[b]thiophene-3-carbonyl)piperidine-4-carboxamide], the half-inhibitory concentration (IC50) at Human ACC1 and on Human ACC2 was more than 10 µM each time.

As to `CCNC(=O)Nc1sc2c(OC)cccc2c1C(=O)N1CCC2(CC1)N=C(COC1CCCCC1)NC2=O` [Compound 32, 1-(3-(2-(cyclohexyloxymethyl)-4-oxo-1,3,8-triazaspiro[4.5]dec-1-enecarbonyl)-7-methoxybenzo[b]thiophen-2-yl)-3-ethylurea], the IC50 on Human ACC1 and on Human ACC2 was less than 1 µM throughout.

In the case of `CCNC(=O)Nc1sc2ccccc2c1C(=O)N1CCC2(CC1)N=C(CN1C(=O)CCC1=O)NC2=O` [Compound 5, 1-(3-(2-((2,5-dioxopyrrolidin-1-yl)methyl)-4-oxo-1,3,8-triazaspiro[4.5]dec-1-enecarbonyl)benzo[b]thiophen-2-yl)-3-ethylurea], the IC50 on Human ACC1 and at Human ACC2 was more than 10 µM each time.

Take `CCNC(=O)Nc1sc2ccccc2c1C(=O)N1CCC(N)(C#N)CC1` [Compound 6, 1-(3-(4-amino-4-cyanopiperidine-1-carbonyl)benzo[b]thiophen-2-yl)-3-ethylurea]: the IC50 at Human ACC1 and at Human ACC2 was more than 10 µM throughout.

Consider `CCNC(=O)Nc1sc2ccccc2c1C(=O)N1CCC2(CC1)N=C(Cn1cc(CN)nn1)NC2=O` [Compound 34, 1-(3-(2-((4-(aminomethyl)-1 H-1,2,3-triazol-1-yl)methyl)-4-oxo-1,3,8-triazaspiro[4.5]dec-1-enecarbonyl)benzo[b]thiophen-2-yl)-3-ethylurea], for which the IC50 on Human ACC1 and on Human ACC2 was more than 10 µM each time.

Take `CCNC(=O)Nc1sc2ccccc2c1C(=O)N1CCC2(CC1)N=C(C[S+]([O-])C(C)C)NC2=O` (stereo not shown) [Compound 23, 1-ethyl-3-(3-(2-(isopropylsulfinylmethyl)-4-oxo-1,3,8-triazaspiro[4.5]dec-1-enecarbonyl)benzo[b]thiophen-2-yl)urea]: the IC50 on Human ACC1 is more than 10 µM; on Human ACC2, less than 1 µM.

With `CCNC(=O)Nc1sc2ccccc2c1C(=O)N1CCC2(CC1)N=C(Cn1cc(CN(C)C)nn1)NC2=O` [Compound 35, 1-(3-(2-((4-((dimethylamino)methyl)-1 H-1,2,3-triazol-1-yl)methyl)-4-oxo-1,3,8-triazaspiro[4.5]dec-1-enecarbonyl)benzo[b]thiophen-2-yl)-3-ethylurea], the concentration for half-maximal inhibition (IC50) on Human ACC1 is more than 10 µM; at Human ACC2, 1 to 10 µM.

For `CCNC(=O)Nc1sc2ccccc2c1C(=O)N1CCC2(CC1)N=C(CSC)NC2=O` [Compound 3, 1-ethyl-3-(3-(2-(methylthiomethyl)-4-oxo-1,3,8-triazaspiro[4.5]dec-1-enecarbonyl)benzo[b]thiophen-2-yl)urea], the concentration for half-maximal inhibition (IC50) at Human ACC1 and at Human ACC2 was 1 to 10 µM throughout.

For the compound `CCNC(=O)Nc1sc2ccccc2c1C(=O)N1CCC2(CC1)N=C(CSC(C)C)NC2=O` [Compound 22, 1-ethyl-3-(3-(2-(isopropylthiomethyl)-4-oxo-1,3,8-triazaspiro[4.5]dec-1-enecarbonyl)benzo[b]thiophen-2-yl)urea], the IC50 is 1 to 10 µM at Human ACC1 and less than 1 µM at Human ACC2.

Turning to `CCNC(=O)Nc1sc2ccccc2c1C(=O)N1CCC2(CC1)N=C(COc1ccccc1OC)NC2=O` [Compound 25, 1-ethyl-3-(3-(2-((2-methoxyphenoxy)methyl)-4-oxo-1,3,8-triazaspiro[4.5]dec-1-enecarbonyl)benzo[b]thiophen-2-yl)urea], the 50% inhibitory concentration (IC50) at Human ACC1 was 1 to 10 µM; at Human ACC2, less than 1 µM.

As for `CCNC(=O)Nc1sc2ccccc2c1C(=O)N1CCC2(CC1)N=C(COc1ccccc1C#N)NC2=O` [Compound 26, 1-(3-(2-((2-cyanophenoxy)methyl)-4-oxo-1,3,8-triazaspiro[4.5]dec-1-enecarbonyl)benzo[b]thiophen-2-yl)-3-ethylurea], the results for the IC50 on Human ACC1 and at Human ACC2 were more than 10 µM and less than 1 µM, respectively.

Consider `CCNC(=O)Nc1sc2c(OC)cccc2c1C(=O)N1CCC2(CC1)N=C(CCC(=O)OCC)NC2=O` [Compound 11, ethyl 3-(8-(2-(3-ethylureido)-7-methoxybenzo[b]thiophene-3-carbonyl)-4-oxo-1,3,8-triazaspiro[4.5]dec-1-en-2-yl)propanoate], for which the IC50 on Human ACC1 and at Human ACC2 was less than 1 µM each time.

A word on the IC50: it is the concentration that inhibits the measured activity by half.

For the origin of these results see patent publication US7981904B2, “Acetyl CoA carboxylase inhibitors” (Takeda Pharmaceutical Company Limited, priority 2008, dated 2011).
